Data on 27 molecules can be found in patent US20260083851A1 (AVILAR THERAPEUTICS, INC., priority 2022, published 2026).

SMILES strings stand for the structures. Where only a bound is given, the exact number is not on record here.

The target of the first assay is T1, ASGP receptor (biotinylated ASGPR) (Homo sapiens, UniProt P07306).
T1 construct: biotin (biotinylated)
T1 sequence (P07306 1-291): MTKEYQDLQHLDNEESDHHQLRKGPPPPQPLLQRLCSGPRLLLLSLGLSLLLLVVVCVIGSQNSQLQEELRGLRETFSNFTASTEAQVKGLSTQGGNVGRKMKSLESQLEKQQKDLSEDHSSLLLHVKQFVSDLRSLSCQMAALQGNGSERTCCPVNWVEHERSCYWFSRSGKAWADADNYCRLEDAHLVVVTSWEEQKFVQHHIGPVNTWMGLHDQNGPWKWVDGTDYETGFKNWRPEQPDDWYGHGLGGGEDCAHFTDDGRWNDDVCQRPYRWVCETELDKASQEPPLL
Type of assay: binding. As to conditions: SPR, Biacore 8K, 25° C.; Table 1A, numeric bound; read-out: ASGPR KD. (Surface plasmon resonance follows binding to a sensor surface in real time, without labels.)
Take `O=C(O)CNC(COCCC(=O)NC[C@H]1OC[C@H](Nc2cncc(C(F)(F)F)n2)[C@@H](O)[C@H]1O)COCCC(=O)NC[C@H]1OC[C@H](Nc2cncc(C(F)(F)F)n2)[C@@H](O)[C@H]1O` [A23, (1,15-bis((2R,3R,4R,5S)-3,4-dihydroxy-5-((6-(trifluoromethyl)pyrazin-2-yl)amino)tetrahydro-2H-pyran-2-yl)-3,13-dioxo-6,10-dioxa-2,14-diazapentadecan-8-yl)glycine]: the Kd was above 20 µM.

Staying with this assay, now noted: SPR, Biacore 8K, 25° C.; Table 1A; read-out: ASGPR KD.
For `O=C(O)COc1ccc(CC(=O)NC[C@H]2OC[C@H](Nc3cncc(C(F)(F)F)n3)[C@@H](O)[C@H]2O)cc1` [A1, 2-(4-(2-((((2R,3R,4R,5S)-3,4-dihydroxy-5-((6-(trifluoromethyl)pyrazin-2-yl)amino)tetrahydro-2H-pyran-2-yl)methyl)amino)-2-oxoethyl)phenoxy)acetic acid], the dissociation constant (Kd) was below 10 µM. `O=C(NC[C@H]1OC[C@H](Nc2cncc(C(F)(F)F)n2)[C@@H](O)[C@H]1O)c1ccc2c(c1)CCNC2` [A3, N-(((2R,3R,4R,5S)-3,4-dihydroxy-5-((6-(trifluoromethyl)pyrazin-2-yl)amino)tetrahydro-2H-pyran-2-yl)methyl)-1,2,3,4-tetrahydroisoquinoline-6-carboxamide]: the Kd was below 10 µM. Still for that read-out and setting: under `O=C(NC[C@H]1OC[C@H](Nc2cncc(C(F)(F)F)n2)[C@@H](O)[C@H]1O)c1ncccn1` [A4, N-(((2R,3R,4R,5S)-3,4-dihydroxy-5-((6-(trifluoromethyl)pyrazin-2-yl)amino)tetrahydro-2H-pyran-2-yl)methyl)pyrimidine-2-carboxamide] stands below 10 µM. The same measure, in the same setting: under `COCCO[C@H]1O[C@H](CO)[C@H](O)[C@H](O)[C@H]1Nc1cncc(C(F)(F)F)n1` [A5] stands below 10 µM. The same measure, in the same setting: for `O=C(NC[C@H]1OC[C@H](Nc2cncc(C(F)(F)F)n2)[C@@H](O)[C@H]1O)c1ccc2[nH]cnc2c1` [A6, N-(((2R,3R,4R,5S)-3,4-dihydroxy-5-((6-(trifluoromethyl)pyrazin-2-yl)amino)tetrahydro-2H-pyran-2-yl)methyl)-1H-benzo[d]imidazole-5-carboxamide] the value was below 10 µM; for `O=C(NC[C@H]1OC[C@H](Nc2cncc(C(F)(F)F)n2)[C@@H](O)[C@H]1O)c1ccc(-c2ccccc2)nc1` [A7, N-(((2R,3R,4R,5S)-3,4-dihydroxy-5-((6-(trifluoromethyl)pyrazin-2-yl)amino)tetrahydro-2H-pyran-2-yl)methyl)-6-phenylnicotinamide], below 10 µM. Consider `O=C(NC[C@H]1OC[C@H](Nc2cncc(C(F)(F)F)n2)[C@@H](O)[C@H]1O)c1cnc2ccccc2c1` [A8, N-(((2R,3R,4R,5S)-3,4-dihydroxy-5-((6-(trifluoromethyl)pyrazin-2-yl)amino)tetrahydro-2H-pyran-2-yl)methyl)quinoline-3-carboxamide], for which the Kd is below 10 µM. For `O[C@@H]1[C@H](O)[C@@H](Nc2cncc(C(F)(F)F)n2)CO[C@@H]1CN1CCN(Cc2ccccc2)CC1` [A9, (2R,3R,4R,5S)-2-((4-benzylpiperazin-1-yl)methyl)-5-((6-(trifluoromethyl)pyrazin-2-yl)amino)tetrahydro-2H-pyran-3,4-diol], the Kd is below 10 µM. With `O=C(NC[C@H]1OC[C@H](Nc2cncc(C(F)(F)F)n2)[C@@H](O)[C@H]1O)c1ccc(-c2ccccc2)cc1` [A10, N-(((2R,3R,4R,5S)-3,4-dihydroxy-5-((6-(trifluoromethyl)pyrazin-2-yl)amino)tetrahydro-2H-pyran-2-yl)methyl)-[1,1′-biphenyl]-4-carboxamide], the Kd is below 10 µM.

As to `O=C(NC[C@H]1OC[C@H](Nc2cncc(C(F)(F)F)n2)[C@@H](O)[C@H]1O)c1ccc2occc2c1` [A11, N-(((2R,3R,4R,5S)-3,4-dihydroxy-5-((6-(trifluoromethyl)pyrazin-2-yl)amino)tetrahydro-2H-pyran-2-yl)methyl)benzofuran-5-carboxamide], the Kd is below 10 µM. Same read-out and setting: under `O=C(CC12CC3CC(CC(C3)C1)C2)NC[C@H]1OC[C@H](Nc2cncc(C(F)(F)F)n2)[C@@H](O)[C@H]1O` [A12, 2-((3R,5R,7R)-adamantan-1-yl)-N-(((2R,3R,4R,5S)-3,4-dihydroxy-5-((6-(trifluoromethyl)pyrazin-2-yl)amino)tetrahydro-2H-pyran-2-yl)methyl)acetamide] stands below 10 µM; under `O=C(NC[C@H]1OC[C@H](Nc2cncc(C(F)(F)F)n2)[C@@H](O)[C@H]1O)c1nc2ccccc2[nH]1` [A13, N-(((2R,3R,4R,5S)-3,4-dihydroxy-5-((6-(trifluoromethyl)pyrazin-2-yl)amino)tetrahydro-2H-pyran-2-yl)methyl)-1H-benzo[d]imidazole-2-carboxamide], below 10 µM; under `O=C(NC[C@H]1OC[C@H](Nc2cncc(C(F)(F)F)n2)[C@@H](O)[C@H]1O)c1cc2ccccc2[nH]1` [A14, N-(((2R,3R,4R,5S)-3,4-dihydroxy-5-((6-(trifluoromethyl)pyrazin-2-yl)amino)tetrahydro-2H-pyran-2-yl)methyl)-1H-indole-2-carboxamide], below 10 µM. For the molecule `O=C(NC[C@H]1OC[C@H](Nc2cncc(C(F)(F)F)n2)[C@@H](O)[C@H]1O)C12CC3CC(CC(C3)C1)C2` [A15, (1S,3S)—N-(((2R,3R,4R,5S)-3,4-dihydroxy-5-((6-(trifluoromethyl)pyrazin-2-yl)amino)tetrahydro-2H-pyran-2-yl)methyl)adamantane-1-carboxamide], the Kd is below 10 µM. Still for that read-out and setting: under `O=C(O)c1ccc(N2CCC(CN3CCN(C[C@H]4OC[C@H](Nc5cncc(C(F)(F)F)n5)[C@@H](O)[C@H]4O)CC3)CC2)nn1` [A16, 6-(4-((4-(((2R,3R,4R,5S)-3,4-dihydroxy-5-((6-(trifluoromethyl)pyrazin-2-yl)amino)tetrahydro-2H-pyran-2-yl)methyl)piperazin-1-yl)methyl)piperidin-1-yl)pyridazine-3-carboxylic acid] stands below 10 µM; under `O=C(NC[C@H]1OC[C@H](Nc2cncc(C(F)(F)F)n2)[C@@H](O)[C@H]1O)c1ccc2ncncc2c1` [A17, N-(((2R,3R,4R,5S)-3,4-dihydroxy-5-((6-(trifluoromethyl)pyrazin-2-yl)amino)tetrahydro-2H-pyran-2-yl)methyl)quinazoline-6-carboxamide], below 10 µM. On to `O=C(NC[C@H]1OC[C@H](Nc2cncc(C(F)(F)F)n2)[C@@H](O)[C@H]1O)C1C[C@@H]2CC[C@H]1C2` (stereo partly drawn) [A18, (1S,4R)—N-(((2R,3R,4R,5S)-3,4-dihydroxy-5-((6-(trifluoromethyl)pyrazin-2-yl)amino)tetrahydro-2H-pyran-2-yl)methyl)bicyclo[2.2.1]heptane-2-carboxamide], for which the Kd was below 10 µM.

Consider `O[C@@H]1[C@H](O)[C@@H](Nc2cncc(C(F)(F)F)n2)CO[C@@H]1CNc1ncccn1` [A19, (2R,3R,4R,5S)-2-((pyrimidin-2-ylamino)methyl)-5-((6-(trifluoromethyl)pyrazin-2-yl)amino)tetrahydro-2H-pyran-3,4-diol], for which the Kd is below 10 µM. The same measure, in the same setting: under `O=C(NC[C@H]1OC[C@H](Nc2cncc(C(F)(F)F)n2)[C@@H](O)[C@H]1O)c1cnccn1` [A20, N-(((2R,3R,4R,5S)-3,4-dihydroxy-5-((6-(trifluoromethyl)pyrazin-2-yl)amino)tetrahydro-2H-pyran-2-yl)methyl)pyrazine-2-carboxamide] stands below 10 µM; under `N#CC[C@H]1OC[C@H](Nc2cncc(C(F)(F)F)n2)[C@@H](O)[C@H]1O` [A21, 2-((2R,3R,4R,5S)-3,4-dihydroxy-5-((6-(trifluoromethyl)pyrazin-2-yl)amino)tetrahydro-2H-pyran-2-yl)acetonitrile], below 10 µM. The same measure, in the same setting: under `O=C(NC[C@H]1OC[C@H](Nc2cncc(C(F)(F)F)n2)[C@@H](O)[C@H]1O)c1cnc[nH]1` [A22, N-(((2R,3R,4R,5S)-3,4-dihydroxy-5-((6-(trifluoromethyl)pyrazin-2-yl)amino)tetrahydro-2H-pyran-2-yl)methyl)-1H-imidazole-5-carboxamide] stands below 10 µM. On the same count and under the same terms, under `O=C(NC[C@H]1OC[C@H](Nc2cncc(C(F)(F)F)n2)[C@@H](O)[C@H]1O)c1cccc(F)c1` [A24, N-(((2R,3R,4R,5S)-3,4-dihydroxy-5-((6-(trifluoromethyl)pyrazin-2-yl)amino)tetrahydro-2H-pyran-2-yl)methyl)-3-fluorobenzamide] stands below 10 µM; under `O=C(NC[C@H]1OC[C@H](Nc2cncc(C(F)(F)F)n2)[C@@H](O)[C@H]1O)c1cncnc1` [A25, N-(((2R,3R,4R,5S)-3,4-dihydroxy-5-((6-(trifluoromethyl)pyrazin-2-yl)amino)tetrahydro-2H-pyran-2-yl)methyl)pyrimidine-5-carboxamide], below 10 µM.

`O=C(O)CNC[C@H]1OC[C@H](Nc2cncc(C(F)(F)F)n2)[C@@H](O)[C@H]1O` [A26, (((2R,3R,4R,5S)-3,4-dihydroxy-5-((6-(trifluoromethyl)pyrazin-2-yl)amino)tetrahydro-2H-pyran-2-yl)methyl)glycine]: the Kd is below 10 µM. Still for that read-out and setting: under `O=C(NC[C@H]1OC[C@H](Nc2cncc(C(F)(F)F)n2)[C@@H](O)[C@H]1O)c1ccnnc1` [A27, N-(((2R,3R,4R,5S)-3,4-dihydroxy-5-((6-(trifluoromethyl)pyrazin-2-yl)amino)tetrahydro-2H-pyran-2-yl)methyl)pyridazine-4-carboxamide] stands below 10 µM. For `O[C@@H]1[C@H](O)[C@@H](Nc2cncc(C(F)(F)F)n2)CO[C@@H]1CNc1cccnc1` [A28, (2R,3R,4R,5S)-2-((pyridin-3-ylamino)methyl)-5-((6-(trifluoromethyl)pyrazin-2-yl)amino)tetrahydro-2H-pyran-3,4-diol], the equilibrium dissociation constant (Kd) was below 10 µM.

What is called Kd is the constant that tells how readily two partners part at equilibrium.
